Measured values as given in PubChem BioAssay AID1259375 (The Scripps Research Institute Molecular Screening Center, 2018).
Calls of active or inactive are those of the source. No rule for the calls is given here.

molecular target: Microphthalmia-associated transcription factor (Homo sapiens) (UniProt O75030); assay: MITF inhibitors by FRET titration, dose response, biochemical, high throughput (AID 1259375); details: FRET biochemical assay, MITF inhibition;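 also: FRET between CFP-tagged and YFP-tagged MITF protein partners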
Sequence (O75030 whole entry, looked up): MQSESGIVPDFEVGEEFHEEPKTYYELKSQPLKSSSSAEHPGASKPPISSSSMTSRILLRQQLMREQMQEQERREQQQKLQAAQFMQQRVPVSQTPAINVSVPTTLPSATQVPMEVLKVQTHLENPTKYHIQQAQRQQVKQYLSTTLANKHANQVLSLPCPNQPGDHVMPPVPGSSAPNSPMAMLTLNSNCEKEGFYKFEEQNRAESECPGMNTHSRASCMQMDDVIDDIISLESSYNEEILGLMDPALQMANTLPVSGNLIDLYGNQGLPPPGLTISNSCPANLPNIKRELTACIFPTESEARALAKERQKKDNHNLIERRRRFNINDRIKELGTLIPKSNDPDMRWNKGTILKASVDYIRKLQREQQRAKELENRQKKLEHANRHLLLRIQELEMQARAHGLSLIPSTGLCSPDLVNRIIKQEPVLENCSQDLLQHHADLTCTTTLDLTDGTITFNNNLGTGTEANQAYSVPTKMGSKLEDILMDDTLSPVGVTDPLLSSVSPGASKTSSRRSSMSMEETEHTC

Row | SMILES | IC50
1 | C=C1c2c(Cl)ccc(O)c2C(O)=C2C(=O)[C@]3(O)C(O)=C(C(N)=O)C(=O)[C@@H](N(C)C)[C@@H]3[C@@H](O)[C@H]12 | 2.58 µM
2 | CN(C)CCN(C(=O)OCc1ccccc1)c1cc(-c2cn[nH]c2)ccc1NC(=O)OCc1ccccc1 | > 6.48 µM (inactive)
3 | O=C(NCCc1ccc(O)cc1)c1cccc(-c2cccs2)c1 | > 6.26 µM (inactive)
4 | C=C1c2cccc(O)c2C(O)=C2C(=O)[C@]3(O)C(O)=C(C(N)=O)C(=O)[C@@H](N(C)C)[C@@H]3[C@@H](O)[C@H]12 | > 6.48 µM (inactive)
5 | OCCNc1cc(-c2cccs2)ncn1 | > 6.01 µM (inactive)
6 | CC(C)NC(=O)/C(C#N)=C/c1ccc(-c2ccc([N+](=O)[O-])cc2Br)o1 | > 7.06 µM (inactive)
7 | NCC1OC(=O)C(Oc2ccccc2)=C1Br (stereo unspecified) | > 6.48 µM (inactive)
8 | N#C/C(=C\c1nn(-c2ccccc2)c(N)c1C#N)c1ccco1 | > 6.48 µM (inactive)
9 | Nc1cc2c(S(=O)(=O)O)cc(S(=O)(=O)O)cc2cc1S(=O)(=O)O | > 6.48 µM (inactive)
10 | O=C(NCc1ccccc1)N1CCN2C(=O)[C@@H]3CSCN3C(=O)[C@H]2C1 | > 6.48 µM (inactive)
11 | CCC[C@@H]1NC(=O)[C@H]2CN(C(=O)NC3CCCCC3)CCN2C1=O | > 6.48 µM (inactive)
12 | COc1ccc2c(c1)C1NC(=S)N(c3cccc(C)c3)C(C)(O2)C1C(=O)Nc1ccc(C)cc1C (stereo unspecified) | > 5.71 µM (inactive)
13 | N#CC(C#N)=C(N)/C(C#N)=C/c1ccc([N+](=O)[O-])o1 | 4.85 µM
14 | CN(N=O)c1cc(O)ccc1O | > 6.48 µM (inactive)
15 | O=P(O)(O)C(Cl)(Cl)P(=O)(O)O | > 6.48 µM (inactive)
16 | COCCCNC(=O)/C(C#N)=C/c1ccc(-c2ccc(Cl)c(C(=O)O)c2)o1 | > 6.48 µM (inactive)
17 | O=C(/C=C/c1ccco1)NCCCCNC(=O)/C=C/c1ccco1 | > 6.48 µM (inactive)
18 | O=C(/C=C/c1ccco1)NCC(=O)N/N=C/c1ccc(C(=O)O)cc1 | > 6.48 µM (inactive)
19 | CCN(CCN(C)C)Cc1ccc(F)cc1 | > 6.48 µM (inactive)
20 | Cc1cc2c(c(=O)[nH]1)C(=O)O/C2=C\c1ccco1 | inactive
21 | c1ccc(-c2ccc(OCCCCn3cncn3)cc2)cc1 | > 6.48 µM (inactive)
22 | O=C1N[C@@H](Cc2ccc(Cl)cc2)C(=O)N2CCN(C(=O)NCc3ccccc3)C[C@H]12 | > 6.48 µM (inactive)
23 | NC(=O)Cn1cnc2sc3c(c2c1=O)CCC3 | > 6.48 µM (inactive)
24 | COc1cc(C)c2c(c1C=O)Oc1c(c(C)c(O)c3c1C(O)OC3=O)OC2=O (stereo unspecified) | 1.66 µM

Row | SMILES | IC50
25 | Cc1ccc(C(=O)N/C(=C/c2ccc([N+](=O)[O-])o2)C(=O)O)cc1 | > 5.88 µM (inactive)
26 | O=c1[nH]cnc2nc(-c3ccco3)c(-c3ccco3)nc12 | > 7.63 µM (inactive)
27 | O=C(O)c1ccc(-n2cccc2)cc1Cl | > 6.48 µM (inactive)
28 | O=C1NC(=S)N/C1=C\c1ccc([N+](=O)[O-])o1 | > 7.74 µM (inactive)
29 | O=C(O)c1ccc(NC2OC(CO)C(O)C2O)cc1 (stereo unspecified) | > 5.62 µM (inactive)
30 | O=C(Nc1ccc(-c2ccncc2)c(C(F)(F)F)c1)C1COc2ccccc2O1 (stereo unspecified) | > 6.48 µM (inactive)
31 | O=C(O)c1ccc(CNC(=O)c2cocc2C(=O)O)o1 | > 7.32 µM (inactive)
32 | COc1ccc2c(c1)CC(C(=O)Nc1ccc(-c3cn[nH]c3)cc1OCC#N)CO2 (stereo unspecified) | > 6.48 µM (inactive)
33 | Cc1cc(N=Cc2ccc([N+](=O)[O-])o2)ccc1S(=O)(=O)O | > 6.48 µM (inactive)
34 | O=P(O)(O)C(O)(CCNC(=S)Nc1ccccc1)P(=O)(O)O | > 6.83 µM (inactive)
35 | CC(=O)NC1=NC(=O)/C(=C\c2ccc(Br)o2)S1 | > 6.48 µM (inactive)
36 | CC(Oc1ccc2c(C(F)(F)F)cc(=O)oc2c1)C(=O)NN (stereo unspecified) | > 6.56 µM (inactive)
37 | O=C(O)C1CC=CCC1C(=O)Nc1nncs1 (stereo unspecified) | > 6.48 µM (inactive)
38 | CN(C)C(=O)N1CCN(S(=O)(=O)c2cccc([N+](=O)[O-])c2)CC1 | > 6.48 µM (inactive)
39 | c1ccc2c(c1)OCC(c1nc3c(-c4ccncc4)cncc3[nH]1)O2 (stereo unspecified) | > 6.48 µM (inactive)
40 | NC(=O)NC(=O)COC(=O)c1c2c(nc3ccccc13)/C(=C\c1ccco1)CCC2 | > 7.04 µM (inactive)
41 | CN=C1SC(CC(=O)Nc2cccc(C(=O)O)c2)C(=O)N1C (stereo unspecified) | > 6.48 µM (inactive)
42 | COc1cccc(CN2CCC(CNc3ccc(-c4ccncc4)cc3)C2)c1 (stereo unspecified) | > 6.48 µM (inactive)
43 | O=C(O)c1cc(NN=C2CCCC2)ccc1Cl | > 7.18 µM (inactive)
44 | O=C(O)c1cc(C(=O)O)cc(-c2ccc(/C=N\n3cnnc3)o2)c1 | > 6.48 µM (inactive)
45 | O=C(O)c1ccccc1-c1ccc(/C=C/[N+](=O)[O-])o1 | > 6.48 µM (inactive)
46 | O=C(NCCc1ccc(O)cc1)c1ccnc(-c2cccs2)c1 | > 6.77 µM (inactive)
47 | Cc1cccc(CN2CCN(S(=O)(=O)c3ccccc3[N+](=O)[O-])CC2)c1 | > 5.08 µM (inactive)
48 | C/C(=N\Nc1ccc(S(=O)(=O)O)cc1)c1ccc([N+](=O)[O-])o1 | > 6.48 µM (inactive)

Row | SMILES | IC50
49 | O=P(O)(O)C(Sc1ccc(Cl)cc1)P(=O)(O)O | > 6.48 µM (inactive)
50 | O=C(NCc1ccccc1)N1CCN2C(=O)[C@H]3CCCN3C(=O)[C@H]2C1 | > 6.48 µM (inactive)
51 | CC(=O)Oc1ccccc1N1C(=O)c2ccc(Oc3cccc(N)c3)cc2C1=O | 2.14 µM
52 | O=C(O)CSc1cc(Cl)c2nonc2c1[N+](=O)[O-] | 4.2 µM
53 | COc1ccc(C)cc1NC(=O)C(NCC(O)c1ccccc1)c1ccccc1 (stereo unspecified) | > 7.02 µM (inactive)
54 | O=C(COC(=O)COc1ccc(Cl)cc1)NCc1ccco1 | > 7.21 µM (inactive)
55 | COC(=O)CSc1nnc(-c2ccco2)n1Cc1ccco1 | > 6.48 µM (inactive)
56 | CC1=C(C#N)C(c2cc3c(cc2[N+](=O)[O-])OCO3)C2=C(CCCC2=O)N1 (stereo unspecified) | > 6.48 µM (inactive)
57 | CC(C)(C)OC(=O)N1C(C(=O)O)CSC1c1cc2c(cc1[N+](=O)[O-])OCO2 (stereo unspecified) | > 6.48 µM (inactive)
58 | NS(=O)(=O)c1ccc(N=Cc2cc3c(cc2[N+](=O)[O-])OCO3)cc1 | > 6.48 µM (inactive)
59 | CN1C(=O)[C@H]2CN(C(=O)NCc3ccccc3)CCN2C(=O)[C@@H]1Cc1ccccc1 | > 6.48 µM (inactive)
60 | O=C1N[C@@H](Cc2ccccc2)C(=O)N2CCN(C(=O)NC3CCCCC3)C[C@H]12 | > 6.48 µM (inactive)
61 | O=C(/C=C/c1ccco1)NCc1cccc(CNC(=O)/C=C/c2ccco2)c1 | > 6.48 µM (inactive)
62 | N#CC1=c2/c(=C/c3ccco3)c(N)c(C#N)n2C(=O)C(c2ccco2)S1 (stereo unspecified) | 2.64 µM
63 | O=C(NNC(=O)c1cc(-c2ccco2)nc2ccccc12)NC1CCCCC1 | > 6.48 µM (inactive)
64 | CCN(CC)CC(=O)Nc1ccc(OC)cc1 | > 6.48 µM (inactive)
65 | CC(C)[C@H]1NC(=O)[C@H]2CN(C(=O)NCc3ccccc3)CCN2C1=O | > 6.48 µM (inactive)
66 | CC[C@H](C)[C@@H]1NC(=O)[C@H]2CN(C(=O)NC3CCCCC3)CCN2C1=O | > 6.48 µM (inactive)
67 | CC(O)(CNCCN1CCOCC1)COc1ccc(Cl)cc1 (stereo unspecified) | > 6.31 µM (inactive)
68 | CCOC(=O)N1CCN(C(=S)Nc2ccc(OCC)cc2)CC1 | > 6.48 µM (inactive)
69 | COc1cc(C=Nc2ccc(N(C)C)cc2)cc(I)c1O | > 6.48 µM (inactive)
70 | O=C(OC1CCCC1=O)c1ccc(Cl)c(S(=O)(=O)N2CCOCC2)c1 (stereo unspecified) | > 6.69 µM (inactive)
71 | CCOC(=O)C1C2NC(=S)N(CC)C1(C)Oc1ccc(Br)cc12 (stereo unspecified) | > 6.31 µM (inactive)
72 | O=C(c1ccncc1)N1CCN(Cc2ccccc2[N+](=O)[O-])CC1 | > 6.13 µM (inactive)

Row | SMILES | IC50
73 | COc1ccc2c(c1)CC(C(=O)Nc1ccc(-c3cn[nH]c3)cc1OCC(N)=O)CO2 (stereo unspecified) | > 6.48 µM (inactive)
74 | C/C(=N\NC(=O)Cc1cc(=O)[nH][nH]1)c1ccco1 | > 6.48 µM (inactive)
75 | Oc1ccc2c(c1)C1CCCC1(N1CCOCC1)O2 (stereo unspecified) | > 6.48 µM (inactive)
76 | COC(=O)c1c(NC(=O)c2ccc([N+](=O)[O-])o2)sc(Cc2ccc3c(c2)OCO3)c1C | > 6.42 µM (inactive)
77 | O=C(NCC(O)C(=O)N1CCOCC1)c1cccc(Nc2ccc3[nH]ncc3c2)n1 (stereo unspecified) | > 6.48 µM (inactive)
78 | O=C1c2c(O)cccc2Cc2cccc(O)c21 | > 6.48 µM (inactive)
79 | CC1=C/C(=N\N=C2\NC(=O)C(CC(=O)Nc3ccc(C(=O)O)cc3)S2)CC(C)(C)C1 (stereo unspecified) | > 6.48 µM (inactive)
80 | COc1ccc(CC2NCCc3cc(OC)c(OC)cc32)cc1OC (stereo unspecified) | 0.925 µM
81 | NC(=O)c1cc(NC(=O)COC(=O)COc2cccc(C(F)(F)F)c2)cc(C(N)=O)c1 | > 6.49 µM (inactive)
82 | CCOC(=O)Cc1[nH]nc2c1C1(C(=O)N(CC)c3ccccc31)C(C#N)=C(N)O2 (stereo unspecified) | > 6.48 µM (inactive)
83 | CC(Oc1ccc(O)cc1)(P(=O)(O)O)P(=O)(O)O | > 6.48 µM (inactive)
84 | COc1ccc2nc(-c3ccco3)c(-c3ccco3)nc2c1 | inactive
85 | Cc1ccc(-c2ncn(-c3ccc(Nc4cc(-n5cnc(Nc6ccccc6)n5)c(F)cn4)cc3)n2)cn1 | > 6.48 µM (inactive)
86 | CCS(=O)(=O)NCC(c1cccs1)S(=O)(=O)c1ccc(C)cc1 (stereo unspecified) | > 6.6 µM (inactive)
87 | O=C(Nc1ccc(N2CCOCC2)cc1)c1ccc2nc(-c3cccs3)sc2c1 | > 7.76 µM (inactive)
88 | CCC12c3ccccc3C(c3ccccc31)C1C(=O)NC(=O)C12 (stereo unspecified) | > 6.48 µM (inactive)
89 | CC(=O)NS(=O)(=O)c1ccc(NC(=O)c2ccc([N+](=O)[O-])o2)cc1 | > 6.61 µM (inactive)
90 | COc1ccc(CN2CCN(Cc3ccccc3OC)CC2)cc1 | > 7.33 µM (inactive)
91 | O=C(O)c1cc(N/N=C/c2ccc(N3CCOCC3)s2)ccc1Cl | 3.77 µM
92 | COc1cccc(CN2CCN(C(=O)c3ccc(F)cc3)CC2)c1 | > 5.27 µM (inactive)
93 | CN1C(=O)[C@H]2CN(C(=O)NC3CCCCC3)CCN2C(=O)[C@@H]1Cc1ccccc1 | > 6.48 µM (inactive)
94 | COc1nccnc1NS(=O)(=O)c1ccc(NC(=O)c2ccc([N+](=O)[O-])c(C)c2)cc1 | > 6.48 µM (inactive)
95 | CCCCn1c(=O)[nH]c(=O)c2c1nc(-c1ccc([N+](=O)[O-])o1)n2C | > 7 µM (inactive)
96 | O=C1N[C@@H](Cc2ccc(O)cc2)C(=O)N2CCN(C(=O)NC3CCCCC3)C[C@H]12 | > 6.48 µM (inactive)
